One molecule from patent publication US6525089B1, “Pharmaceutical composition containing decursin” (Binex Co., Ltd., priority 1998, dated 2003) can be followed below.

Experiment [1] deals with ICR mice. The experiment is described as follows: BUN and MDA in blood and MDA in renal tissue, alloxan-treated mice. The format is in vivo. As to conditions: alloxan 75 mg/kg i.v. + decursin 50 mg/kg orally for 10 days. Here is the method: (§1) 2 days after ICR mice were given alloxan (75 mg/kg, i.v.), their glucose levels at fasting were measured to select high-glucose mice. The high-glucose mice were divided into two groups; physiological saline solution was given to one group, while decursin was orally administered to the other group at a dose of 50 mg/kg for 10 days. The alloxan-free group was also orally given physiological saline solution for 10 days. The body weighs were checked periodically, together with urinary tests. To isolate their sera and kidney, mice were slightly anesthetized with ether and their abdomens were dissected. The blood samples were collected from heart to isolate the sera. The kidney was perfused with 0.9% NaCl and isolated after removal of the blood. Then the weight of right kidney was measured. Further, to measure the protein amount from the kidney tissues, these tissues were assayed according to the Bradford method using Bio-Rad protein assay kit in the presence of bovine serum albumin as a reference standard. To measure the MDA in the kidney tissues, 0.4 ml of 10% sodium dodecylsulfate was added to 0.5 ml of 10% kidney-tissue homogenization solution and left in water bath at 37° C. for 30 minutes; With the subsequent addition of 0.1N-HCl (2 ml) and 0.67% TBA (1 ml), the mixture was voltexed and left in boiling water bath for 30 minutes. The mixture was further cooled in ice bath for 2˜3 minutes to stop the reaction. Then 2 ml of n-butanol was added to the mixture, stirred well and centrifuged at 3000 rpm for 10 minutes. The supernatant was collected to measure the absorbance at 532 nm. 10 μg/ml tetraethoxypropane (TEP) was employed as a reference standard. To measure the MDA in sera, 0.8% thiobarbituric acid (TBA) was added to 0.5 ml of sera and left in boiling water bath for 30 minutes. The mixture was further cooled in ice bath for 2˜3 minutes to stop the reaction. The supernatant was collected to measure the absorbance at 532 nm. 10 μg/ml TEP was employed as a reference standard.
Mice were orally given decursin at a dose of 50 mg/kg for 10 days continuously. Then various parameters such as BUN and MDA in the blood as a marker of renal failure were measured, together with urinary test. When […] (table 4), the BUN value of single alloxan-treated group, 17.4±3.7 mg/dl was recovered to the normal level (4.8±0.6 mg/dl) by the treatment of decursin. The MDA value of single alloxan-treated group, 0.51±0.07, was reduced to 0.36±0.03 by the treatment of decursin, which was similar to a normal control group. Thus it was noted that the damage in the kidney was completely recovered. Since the reduction of both MDA values in the blood and kidney tissues may be clinically reasonable and desirable, the MDA value in the kidney tissues was measured. As a result, the MDA value in the kidney tissues of a single alloxan-treated group, 13.24±5.93, was reduced to 5.63±0.99 by the treatment of decursin, which was lower than that of normal control group (8.44±1.01).

Experiment [2] relates to U-937 cells. The experiment is described as follows: NBT reduction test. It counts as cell-based, human. To be noted: 1 × 10^−7M, incubated 4 days. On the procedure: U-937 cells were plated on a cell culture dish at a concentration of 2×10^5 cells/ml in a medium containing 10^−7M decursin and incubated in a 5% CO2 incubator at 37° C.
In the nitrobluetetrazolium (NBT) reduction test, cell solution (about 1×10^6 cells/ml) was well stirred and pelleted by centrifugation at 2000 rpm for 5 minutes. The pellets were suspended in 0.5 ml of medium, followed by the addition of a mixing solution (0.5 ml) containing 10^−6M formyl-methionine leucine phenylalanine (fMLP) and NBT 1.0 mg/DPBSml (1:9). The mixture was incubated at 37° C. for 30 minutes. The reaction was stopped in ice bath and centrifuged at 2000 rpm for 5 minutes. The supernatant was removed and then 200 μl of DPBS was added. The solution was lightly swayed and checked under a microscope to observe a minimum number of 200 cells. The number of NBT (+) cells was calculated by percentage.
The differentiation was investigated by using the fact that the differentiated leukocyte cells may generate superoxide anion by stimulation. […] The cultured mixture, which was reacted with superoxide, was reduced to form a precipitate. Then NBT was added to the precipitate (Table 7).

Experiment [3] concerns ICR mice. The experiment is described as follows: Urinary test, alloxan-treated mice. The format is in vivo. To be noted: Alloxan + decursin group (50 mg/kg orally, 10 days). On the procedure: as §1
Experiment [4] has as its system U-937 cells. The experiment is described as follows: Esterase activity test: naphthol AS-D chloroacetate esterase. The format is cell-based, human. As to conditions: percentage of cells showing activity. On the procedure:
To determine naphthol AS-D chloroacetate esterase activity, the cultured solution of U-937 cells was pelleted by centrifugation at 2000 rpm for 5 minutes, followed by the addition of 100 μl PBS to prepare a cell-concentrated solution. A drop of the cell solution was put on a slide glass and dried for more than 1 hour. Then 40 ml of deionized water was preheated at 37° C. 1 ml of […] solution was mixed with 1 ml of Fast Red Violet LB base solution and left for 2 minutes. The mixture was added to 40 ml of preheated deionized water. After the addition of 5 ml of TRIZMAL TM 6.3) buffer solution (Sigma Co. T-3128) and 1 ml of naphthol AS-D chloroacetate solution, the resulting solution, which was turned to red color was poured on a petri dish. The cells on a slide glass were fixed with citrate-acetone-formaldehyde solution, (CAF solution) at room temperature. The cells were soaked in the previously prepared solution and incubated at 37° C. for 30 minutes at a dark place. The cells were completely washed with deionized water for more than 2 minutes and counterstained with hematoxylin solution for 2 minutes, washed with tap water and dried in the air. After completely dried, the cells were observed under a microscope to calculate the reddish cell numbers by percentage.
Thus it was considered that the cells were differentiated into macrophage.like cells by the action of decursin.

Experiment [5] can be described thus: Body weight, alloxan-treated mice. As to conditions: ICR mice, alloxan + decursin 50 mg/kg orally for 10 days. The format is in vivo. Here is the method:
2 days after ICR mice were given alloxan (75 mg/kg, i.v.), their glucose levels at fasting were measured to select high-glucose mice. The high-glucose mice were divided into two groups; physiological saline solution was given to one group, while decursin was orally administered to the other group at a dose of 50 mg/kg for 10 days. The alloxan-free group was also orally given physiological saline solution for 10 days. The body weighs were checked periodically, together with urinary tests. To isolate their sera and kidney, mice were slightly anesthetized with ether and their abdomens were dissected. The blood samples were collected from heart to isolate the sera. The kidney was perfused with 0.9% NaCl and isolated after removal of the blood. Then the weight of right kidney was measured. Further, to measure the protein amount from the kidney tissues, these tissues were assayed according to the Bradford method using Bio-Rad protein assay kit in the presence of bovine serum albumin as a reference standard. […] The supernatant was collected to measure the absorbance at 532 nm. […] The supernatant was collected to measure the absorbance at 532 nm. […]

As for `CC(C)=CC(=O)O[C@H]1Cc2cc3ccc(=O)oc3cc2OC1(C)C` [decursin], in the experiment on ICR mice [1], the BUN worked out at 4.8 ± 0.6 mg/dL, the MDA in blood turned out to be 0.36 ± 0.03 µg/mL and the “MDA in renal tissue” value was found to be 5.63 ± 0.99 µg/g. The “NBT reduction test: positive cells” value in the experiment on U-937 cells [2] stood at 43%. Further, in the experiment with U-937 cells [2] (listed as Decursin), the “NBT reduction test: positive cells” value came out at 43.1 ± 4.0%. Moreover, in the experiment on ICR mice [3], the “Urinary test Bilirubin: count in category +” value is listed as 2, the “Urinary test Bilirubin: count in category −” value was 8, the “Urinary test Glucose: count in category +” value is given as 1 and the “Urinary test Glucose: count in category −” value came to 9. Besides, in the experiment with ICR mice [3], the “Urinary test Ketone: count in category −” value was found to be 10, the “Urinary test Nitrite: count in category −” value is 10, the “Urinary test Occult blood: count in category +” value is recorded as 2 and the “Urinary test Occult blood: count in category −” value turned out to be 8. Further, in the experiment on ICR mice [3], the “Urinary test Protein: count in category −” value came to 10, the “Urinary test Specific gravity: count in category −” value is 10, the “Urinary test Urobilinogen: count in category +” value is reported as 1 and the “Urinary test Urobilinogen: count in category −” value was 9. Also, the “Urinary test pH: count in category −” value in the experiment with ICR mice [3] is 10. Besides, the “Naphtol AS-D chloroacetate esterase Activity (%)” value with U-937 cells [4] amounted to 0.0%. For the same molecule, in experiment [5], the “weight loss of the alloxan-treated group” value was “significantly reduced”.
